How the values were obtained:
mTOR = mTOR status in HMEC after incubation with peptides (anti-mTor antibody Ser2448); type: cell-based, human
Method: (§1) Human EC grown in EGM-2MV (80% confluence) were incubated with the peptides of the invention or vehicle for the indicated time, washed three times in cold PBS and directly lysed in 2 ml of ice-cold lysis buffer (10 mM Tris pH 7.5, 150 mM NaCl, 1 mM PMSF, 0.5 μg/ml leupeptin, 1 μg/ml pepstatin A, and 1 μg/ml aprotinin) by incubation for 30 min at 4° C. Cell lysate were spun at […] for 10 min, insoluble materials were discarded, and protein contents measured by Bradford assay of supernatants were adjusted. Cell lysate (1 ml) was precleared with 25 μl of protein G-plus agarose beads (Santa Cruz) for 30 min, and proteins were then immunoprecipitated by adding 2 μg of the indicated antibody and incubated for 1 hr. The immunocomplex was pulled down with protein G-plus agarose beads and the beads were washed three times with lysis buffer. The immunoprecipitates were separated by NuPAGE® 4-12% Bis-Tris gel electrophoresis under reducing conditions, transferred to PVDF membrane (Novex System, Invitrogen), and the membrane was blocked with 5% (w/v) non-fat milk in TBS containing 0.1% v/v Tween-20 for 1 hr.
The status of mTOR in the HMEC following incubation with peptides GS-0 and GS-1 was investigated.

NCI-H460 tumors = test: NCI-H460 tumor xenograft in nude mice, tumor volume (Example 3); type: in vivo
Method: H460 cell line has cytology compatible with human Non-Small Cell Lung Cancer (NSCL). Cells were grown in MEM medium containing 10% FCS at 37° C., 5% CO2 humidified atmosphere. The absence of mycoplasms was confirmed by using the PCR Mycoplasma Detection kit (Takara). All experiments were reviewed by the Genopole's institutional animal care and use committee and were performed in accordance with institutional guidelines for animal care. Female BALB/c nu/nu mice (n=30) were used at 5-6 weeks of age. The animals were housed in laminar air-flow cabinets under pathogen-free conditions with a 12 h light/12 h dark schedule, and fed autoclaved standard chow and water ad libitum. The NCI-H460 human NSCL cell line was obtained from American Type Culture Collection (ATCC) were grown in RPMI medium 1640 supplemented with 1 μM sodium pyruvate. Tumor cells (10^7 cells in 200 μl of HBSS) were injected subcutaneously into the right flanks of mice. After engraftment, tumor volume was measured by Vernier callipers, and calculated as described in Balsam A et al. (Balsari A et al. (2004) Eur J Cancer 40: 1275-1281). At tumor volume about 150 mm^3, animals were randomized, and separated into five groups of five animals. Control mice (group 1) were intraperitoneally injected with vehicle (10% DMSO in buffer saline) every day. GS-0 was dissolved in vehicle and intraperitoneally injected (group 2) every day (12 injections). GS-2 was dissolved in vehicle and intraperitoneally injected (group 3) every day (12 injections). Tumor volume and body weight were measured every other day over the treatment period (12 days). GS-2 as well as the control peptide GS-0 were solubilized in DMSO and the resulting solutions were diluted 10 times with phosphate buffer saline (PBS) to obtain a concentration of 1 mg of peptide/ml of 10% DMSO in PBS. At this concentration, all peptides were soluble in 10% DMSO.

[1] = target: T1, recruitment of the regulatory subunit (p85) of the enzyme PI-3K by IRS-1 (Homo sapiens, UniProt P27986); test: Recruitment of p85 of PI-3K by IRS-1 (IRS-1 immunoprecipitation, anti-p85 immunoblot) in HMEC; type: cell-based; settings: final concentration of peptide 500 μg/ml
T1 construct: endogenous in cells; host or cells: human microvascular endothelial cells (HMEC)
T1 sequence (P27986 whole entry): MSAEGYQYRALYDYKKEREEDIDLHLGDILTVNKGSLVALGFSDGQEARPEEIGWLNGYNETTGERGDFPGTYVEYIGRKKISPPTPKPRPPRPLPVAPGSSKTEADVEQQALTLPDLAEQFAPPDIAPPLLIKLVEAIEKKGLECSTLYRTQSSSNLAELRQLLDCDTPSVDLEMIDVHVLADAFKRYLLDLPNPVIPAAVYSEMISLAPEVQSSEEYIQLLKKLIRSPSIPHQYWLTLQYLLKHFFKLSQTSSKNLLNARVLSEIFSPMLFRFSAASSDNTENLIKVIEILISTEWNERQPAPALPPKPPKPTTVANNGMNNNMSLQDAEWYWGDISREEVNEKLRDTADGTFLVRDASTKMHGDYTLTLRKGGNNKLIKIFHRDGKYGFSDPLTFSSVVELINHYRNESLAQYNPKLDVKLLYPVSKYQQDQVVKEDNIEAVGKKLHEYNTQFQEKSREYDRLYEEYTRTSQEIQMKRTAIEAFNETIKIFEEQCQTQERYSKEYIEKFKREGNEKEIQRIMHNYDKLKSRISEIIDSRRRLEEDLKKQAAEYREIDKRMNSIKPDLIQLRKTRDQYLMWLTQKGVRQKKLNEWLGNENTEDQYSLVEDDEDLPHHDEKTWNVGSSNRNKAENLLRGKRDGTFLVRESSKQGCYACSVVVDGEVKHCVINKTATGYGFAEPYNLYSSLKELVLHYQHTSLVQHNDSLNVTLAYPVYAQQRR
Method: as §1
As it is widely admitted that the tyrosine phosphorylation of IRS-1 leads to its association with the regulatory subunit (p85) of the enzyme PI-3K, and this event lead to important increases in the enzymatic activity of this later, we have investigated the influence of the tyrosine phosphorylated and non phosphorylated peptides onto the recruitment of the regulatory subunit (p85) of the enzyme PI-3K by IRS-1. For that, human microvascular endothelial cells (HMEC) were incubated with the tyrosine phosphorylated and non phosphorylated peptides (final concentration of peptide 500 μg/ml) followed by cells lysis and immuoprecipitation of the protein IRS-1. The immunoprecipitates were then resolved in SDS-PAGE, proteins were transferred to membranes, and the membranes were immunoblotted with an anti-p85 PI3K monoclonal antibody.

[2] = Body weight and toxicity of mice bearing NCI-H460 tumors (Example 3); type: in vivo
Method: All experiments were reviewed by the Genopole's institutional animal care and use committee and were performed in accordance with institutional guidelines for animal care. Female BALB/c nu/nu mice (n=30) were used at 5-6 weeks of age. The animals were housed in laminar air-flow cabinets under pathogen-free conditions with a 12 h light/12 h dark schedule, and fed autoclaved standard chow and water ad libitum. […] Tumor cells (10^7 cells in 200 μl of HBSS) were injected subcutaneously into the right flanks of mice. […] At tumor volume about 150 mm^3, animals were randomized, and separated into five groups of five animals. Control mice (group 1) were intraperitoneally injected with vehicle (10% DMSO in buffer saline) every day. GS-0 was dissolved in vehicle and intraperitoneally injected (group 2) every day (12 injections). GS-2 was dissolved in vehicle and intraperitoneally injected (group 3) every day (12 injections). Tumor volume and body weight were measured every other day over the treatment period (12 days).

[3] = tested on: human microvascular endothelial cells (HMEC); test: In vitro angiogenesis assay (Matrigel tube formation); type: cell-based; settings: 500 μg/ml final concentration of peptide, images at 18 h
Method: Angiogenesis of human microvascular endothelial cells (HMEC) was induced in vitro using a Matrigel assay described by Al-Mahmood et al (2009, JPET, 2009; 58:933). This method is based on the differentiation of endothelial cells to form capillary structures on a Matrigel Matrix. Matrigel is prepared the Engelbreth-Holm-Swarm (EHS) mouse tumor, which represents a complex mixture of basement membrane proteins including type IV collagen, entactin, proteo-heparan sulfate and other growth factors.
Briefly, 250 μl of Matrigel were transferred to each well of a 24-well culture plate and incubated at 37° C. for 30 min to allow for the matrix solution to solidify. HMEC grown in complete growth medium EGM-2MV were harvested by trypsin, suspended in the same growth medium and 500 μl containing 70 000 cells were added on top of the solidified Matrigel in each well and in the presence or absence of peptide. Cells were maintained in a humidified atmosphere air containing 5% CO2 at 37° C. for 18-24 hrs. Endothelial tube formation was observed and photographed under an inverted light microscope.
The designed tyrosine phosphorylated and non phosphorylated peptides were tested for their influence onto the in vitro angiogenesis. The results of the in vitro angiogenesis assay were presented in FIG. 1, using HMEC and 500 μg/ml final concentration of each peptide.

Ac-NYICMG-NH2 [GS-0, NYICMG, reference compound]
amounts of mTOR in HMEC relative to vehicle (mTOR): equivalent amounts of mTOR as cell incubated with vehicle
influence on the in vivo growth of the tumor NCI-H460 (in words) (NCI-H460 tumors; 8 mg/kg i.p. daily for 12 days): no significant influence
mean tumor volume at the end of treatment (NCI-H460 tumors; 8 mg/kg i.p. daily for 12 days, n=5): 1114.83 ± 534.50 mm^3
Mean tumor volume D1 (NCI-H460 tumors; Table 4, 8 mg/kg i.p. daily, day 1): 123 mm³
Mean tumor volume D3 (NCI-H460 tumors; Table 4, 8 mg/kg i.p. daily, day 3): 233 mm³
Mean tumor volume D5 (NCI-H460 tumors; Table 4, 8 mg/kg i.p. daily, day 5): 335 mm³
Mean tumor volume D7 (NCI-H460 tumors; Table 4, 8 mg/kg i.p. daily, day 7): 402 mm³
Mean tumor volume D9 (NCI-H460 tumors; Table 4, 8 mg/kg i.p. daily, day 9): 553 mm³
Mean tumor volume D11 (NCI-H460 tumors; Table 4, 8 mg/kg i.p. daily, day 11): 751 mm³
Mean tumor volume D13 (NCI-H460 tumors; Table 4, 8 mg/kg i.p. daily, day 13): 1110 mm³
influence onto the recruitment of the regulatory subunit (p85) of PI3K by IRS-1 [1]: no and/or negligible influence
toxicity and body weight loss during treatment ([2]; 8 mg/kg intraperitoneally every day, 12 injections): No toxicity and no body weight loss
Mean body weight D1 ([2]; Table 3, 8 mg/kg i.p. daily, day 1, in g): 20.91
Mean body weight D3 ([2]; Table 3, 8 mg/kg i.p. daily, day 3, in g): 21.37
Mean body weight D5 ([2]; Table 3, 8 mg/kg i.p. daily, day 5, in g): 21.65
Mean body weight D7 ([2]; Table 3, 8 mg/kg i.p. daily, day 7, in g): 21.81
Mean body weight D9 ([2]; Table 3, 8 mg/kg i.p. daily, day 9, in g): 22.52
Mean body weight D11 ([2]; Table 3, 8 mg/kg i.p. daily, day 11, in g): 22.76
Mean body weight D13 ([2]; Table 3, 8 mg/kg i.p. daily, day 13, in g): 22.36
in vitro angiogenesis-inhibitory activity [3]: have not and/or negligible in vitro angiogenesis-inhibitory activity

Reference: US9206236B2, “Peptides for treating cancer” (Gene Signal International SA, priority 2010, dated 2015)
